Source: paper PMC5686155, “Crystal structures of the mitochondrial deacylase Sirtuin 4 reveal isoform-specific acyl recognition and regulation features” (Nature Communications, 2017)
“And” between values parts separate entries of the source, which are not always exact repeats. Identical values can stand only once.

Key:
hSirt4 [1] = target: T1, hSirt4 (Homo sapiens, UniProt Q9Y6E7); assay: HMG-FdL (Fluor-de-Lys-like) de-HMG-ylation assay; type: biochemical; conditions: HMG-FdL assay, 1 µM hSirt4, 500 µM HMG-FdL substrate, 500 μM NAD+, 37 °C, 20 min; fluorescence; n = 2; NADH corrected through spiking controls
T1 construct: hSirt4(25–314) in pQE30 coding for an N-terminal His6-tag; His6 (N); made in house; host or cells: Escherichia coli CodonPlus(DE3)
T1 sequence (Q9Y6E7 25-314): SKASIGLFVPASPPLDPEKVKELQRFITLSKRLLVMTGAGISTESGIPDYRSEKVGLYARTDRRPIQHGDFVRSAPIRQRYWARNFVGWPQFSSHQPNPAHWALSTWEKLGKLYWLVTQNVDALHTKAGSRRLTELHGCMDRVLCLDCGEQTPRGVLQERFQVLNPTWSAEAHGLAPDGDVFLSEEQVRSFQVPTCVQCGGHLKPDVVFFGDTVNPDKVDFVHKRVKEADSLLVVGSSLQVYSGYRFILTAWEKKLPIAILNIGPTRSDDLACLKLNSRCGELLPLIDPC
Experimental: As a convenient and complementary, fluorescence-based alternative to the coupled enzymatic assay with HMG-peptides, we established substrate and assay corresponding to the popular “Fluor-de-Lys” (FdL) deacylation assays. […] We then employed the FdL-like Sirt4 assay for studying the effects of NAM and NADH, which are not compatible with the coupled assay. […] After 20 min, developer solution (2 mM NAM and 10 mg mL^−1 trypsin) in assay buffer was added 1:1 and samples were incubated for 45 min at room temperature. Fluorescence was measures using a FluoDia T70 with excitation wavelength 365 nm and emission wavelength 465 nm.

Sirt4 = target: T2, Sirt4 (Homo sapiens, UniProt Q9Y6E7); assay: MS-based Sirt4 inhibition assay with HMG-CPS1 substrate; type: biochemical; conditions: n = 2 (Supplementary Fig. 4b)
T2 construct: hSirt4(25–314) in pQE30 coding for an N-terminal His6-tag; His6 (N); made in house; host or cells: Escherichia coli CodonPlus(DE3)
T2 sequence (Q9Y6E7 25-314): T1 sequence (Q9Y6E7 25-314)
Experimental: For MS and UV analyzes of deacylation reactions, samples were prepared as described for the coupled continuous assay, stopped by mixing 1:1 with 0.5% TFA after 0 and 60 min, diluted to 20 µM peptide using 0.1% FA, and analyzed by HPLC-separation using a Shimadzu Prominence UFLC (Shimadzu, Duisburg, Germany) coupled to ESI-MS and UV detection. Samples were washed on a Piccolo Proto 200 C4 5 μm 2.5 × 0.5 mm trap column (Higgins Analytical, Mountain View, California) and subsequently subjected to a Jupiter C4 5 μm 300 Å 150 × 1 mm analytical column (Phenomenex, Torrance, California) for reversed phase separation, with 99.9% H2O, 0.1% TFA as buffer A and 99.9% ACN, 0.1% TFA as buffer B. Peptides were eluted over a 20 min gradient from 1 to 55% buffer B, followed by 1 min from 55 to 90% buffer B with 70 µL min^−1 flow-rate. UV-detection was done using a Shimadzu SPD-20A detector at 280 nm. MS analysis was performed by ESI-TOF-MS on an AB Sciex TripleTOF 5600+ mass spectrometer (Sciex, Darmstadt, Germany) with a DuoSpray Ion Source using the following settings: floating voltage of 5500 V and declustering potential of 100 with one TOF experiment summing over four time bins. We detected in a mass range from 300 to 2500 m/z. […]

other sirtuins = conditions: cited from earlier work
xSirt4 Wild-type = assay: Coupled continuous assay, xSirt4 wild-type; type: biochemical, Xenopus tropicalis; conditions: HMG-CPS1 peptide substrate, n = 2
Experimental: The coupled continuous assay was performed as reported. Briefly, assays in 20 mM sodium phosphate buffer pH 7.8 contained 5 µM hSirt4 or 3–5 µM xSirt4, 0.05 mg ml^−1 nicotinamidase, 2 U ml^–1 GDH, 3.3 mM a-ketoglutarate, 0.2 mM NADPH, 10% DMSO, and NAD^+ at 2 mM or as indicated, and substrate peptide at 500 µM or as indicated. Reactions were monitored in microplates at room temperature for 1 h through absorption measurements at 340 nm in a LAMBDAScan plate reader (MWG Biotech, Ebersberg, Germany).

xSirt4 Delta 198–203 = assay: Coupled continuous assay, xSirt4 variant; type: biochemical, Xenopus tropicalis; conditions: Sirt4 loop deletion variant (198-203), HMG-CPS1 peptide substrate; n = 2
Experimental: For xSirt4(32–315) and zSirt4(29–310) eluted from the NiNTA material, the buffer was changed to 50 mM Tris/HCl pH 7.5, 200 mM NaCl, (supplemented with 20% glycerol for xSirt4) in a HiPrep Desalting column and subjected to Senp2-proteolysis for 30 min on ice. The protein was loaded on a HisTrap HP 1 mL column (GE Healthcare) and eluted with 50 mM Tris/HCl pH 7.5, 200 mM NaCl, 30–50 mM imidazole. It was subsequently subjected to gel filtration on a Superdex 75 10/300 GL (xSirt4) or Superdex 200 10/300 GL (zSirt4) column (both GE Healthcare) in 25 mM Tris/HCl pH 7.5, 150 mM NaCl (+20 % glycerol for xSirt4), concentrated in a Microsep concentrator, flash-frozen in liquid nitrogen, and stored at −80 °C. xSirt4 single-site variants were generated using the QuickChange protocol (see Supplementary Table 1 for primer sequences) and verified by DNA sequencing, and the proteins were produced as described for wild-type xSirt4.
(§1) The coupled continuous assay was performed as reported. […] Reactions were monitored in microplates at room temperature for 1 h through absorption measurements at 340 nm in a LAMBDAScan plate reader (MWG Biotech, Ebersberg, Germany).

xSirt4 = assay: Thermal denaturation shift assay; type: binding, Xenopus tropicalis; conditions: 3 µM xSirt4, SYPRO orange, 20 to 73 °C; n = 2
Experimental: Thermal shift assays were performed in 96-well PCR plates using 3 µM xSirt4 (32–315) or 3 µM zSirt4 (29–310) and SYPRO orange (Thermo Fisher, Waltham, MA, USA) covered with 15 µL mineral oil. Heating and fluorescence measurements were performed in a FluoDia T70 with 1 K steps from 20 to 73 °C (excitation: 465 nm, emission: 580 nm). The data were analyzed in GraFit (Erithacus Software Ltd, Horley, UK) by nonlinear fitting using a two state model.

hSirt4 [2] = target: T1, hSirt4; assay: Coupled continuous enzymatic assay monitoring NAM release from NAD+ (Sirt4 deacylation); type: biochemical; conditions: hSirt4 wild-type
Experimental: The seven mammalian sirtuins vary in their sequence and acyl preferences[16],[19]. […] We therefore asked whether other acyl modifications would yield deacylation efficiencies expected for a physiologically dominant Sirt4 activity.
as §1

sirtuins = conditions: cited from earlier work
Source text: All sirtuins share NAD^+ as an essential cosubstrate, but the Sirt4 nucleotide binding site differs from those of other isoforms. The Sirt4-loop tightens the entry of the C-site, where the conserved Asp145 recognizes the NAM moiety of NAD^+ [25], and its tip around Pro200 will have to rearrange slightly to allow productive NAD^+ binding (Supplementary Fig. 3c), consistent with a switch function.

Structure (SMILES): NC(=O)C1=CN([C@@H]2O[C@H](COP(=O)(O)OP(=O)(O)OC[C@H]3O[C@@H](n4cnc5c(N)ncnc54)[C@H](O)[C@@H]3O)[C@@H](O)[C@H]2O)C=CC1 [NADH]
- IC50 (hSirt4 [1]): 126 ± 12 µM
- IC50 (Sirt4): 142 ± 54 µM
- IC50 (other sirtuins; other sirtuin isoforms, read-out: IC 50 on other sirtuins): 1300 to 27900 µM and ≥ 1300 µM
- Ki (other sirtuins; read-out: K i on other sirtuin isoforms): ≥ 700 µM

Structure (SMILES): NC(=O)c1ccc[n+]([C@@H]2O[C@H](COP(=O)([O-])OP(=O)(O)OC[C@H]3O[C@@H](n4cnc5c(N)ncnc54)[C@H](O)[C@@H]3O)[C@@H](O)[C@H]2O)c1 [NAD^+]
- K M (NAD+ titration) (xSirt4 Wild-type): 70 ± 14 µM
- K M (NAD+ titration) (xSirt4 Delta 198–203): 66 ± 9 µM
- Sirt4 stabilization in thermal denaturation shift experiments (xSirt4): significant Sirt4 stabilization
- K M (NAD+ titration) (hSirt4 [2]): 62 ± 14 µM
- K M(NAD+) range reported for sirtuins (sirtuins): 14 to 600 µM
